Measured values reported in the supplement of paper PMC10307832.

Legend:
Experiment in all cases: relative viability (nuclei count vs DMSO), 5 days (fraction); higher = more cells survive
[1] = compound: CC1(C)CCC(CN2CCN(c3ccc(C(=O)NS(=O)(=O)c4ccc(NCC5CCOCC5)c([N+](=O)[O-])c4)c(Oc4cnc5[nH]ccc5c4)c3)CC2)=C(c2ccc(Cl)cc2)C1 [Venetoclax] + CC(C)C[C@H](NC(=O)[C@H](Cc1ccccc1)NC(=O)c1cnccn1)B(O)O [Bortezomib] (partner 0.002 µM)
Outline: (§1)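 Five library-drug doses in √10 steps were combined with a fixed anchor-drug dose, or a single drug was given alone, by pin tool to lung cancer cell lines in 1536-well plates the day after seeding. Nuclei were stained and counted after 5 days. Relative viability is the nuclei count in treated wells over that in vehicle wells, taken as the median of duplicate plates.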

[2] = compound: CC1(C)CCC(CN2CCN(c3ccc(C(=O)NS(=O)(=O)c4ccc(NCC5CCOCC5)c([N+](=O)[O-])c4)c(Oc4cnc5[nH]ccc5c4)c3)CC2)=C(c2ccc(Cl)cc2)C1 [Venetoclax] + CC1(C)CCC(c2ccc(Cl)cc2)=C(CN2CCN(c3ccc(C(=O)NS(=O)(=O)c4ccc(N[C@H](CCN5CCOCC5)CSc5ccccc5)c(S(=O)(=O)C(F)(F)F)c4)cc3)CC2)C1 [Navitoclax] (partner 0.5 µM)
Outline: as §1

[3] = compound: CC1(C)CCC(CN2CCN(c3ccc(C(=O)NS(=O)(=O)c4ccc(NCC5CCOCC5)c([N+](=O)[O-])c4)c(Oc4cnc5[nH]ccc5c4)c3)CC2)=C(c2ccc(Cl)cc2)C1 [Venetoclax] + Nc1nc2[nH]cc(CCc3ccc(C(=O)N[C@@H](CCC(=O)O)C(=O)O)cc3)c2c(=O)[nH]1 [Pemetrexed] (partner 0.2 µM)
Outline: as §1

[4] = compound: Cn1cnc2c(F)c(Nc3ccc(Br)cc3Cl)c(C(=O)NOCCO)cc21 [Selumetinib] + N=C(N)NC(=N)NCCc1ccccc1 [Phenformin] (partner 250 µM)
Outline: as §1

Cell Line | relative viability ([1]; first compound 0.01 µM) | relative viability ([1]; first compound 0.03162 µM) | relative viability ([1]; first compound 0.1 µM) | relative viability ([1]; first compound 0.3162 µM) | relative viability ([1]; first compound 1 µM) | relative viability ([2]; first compound 0.01 µM) | relative viability ([2]; first compound 0.03162 µM) | relative viability ([2]; first compound 0.1 µM) | relative viability ([2]; first compound 0.3162 µM) | relative viability ([2]; first compound 1 µM) | relative viability ([3]; first compound 0.01 µM) | relative viability ([3]; first compound 0.03162 µM) | relative viability ([3]; first compound 0.1 µM) | relative viability ([3]; first compound 0.3162 µM) | relative viability ([3]; first compound 1 µM) | relative viability ([4]; first compound 0.02 µM) | relative viability ([4]; first compound 0.06325 µM) | relative viability ([4]; first compound 0.2 µM) | relative viability ([4]; first compound 0.6325 µM)
201T | 1.11 | 1.03 | 1.11 | 1.09 | 1.06 | 1.17 | 1.24 | 1.27 | 1.19 | 1.21 | 0.283 | 0.309 | 0.33 | 0.329 | 0.366 | 0.507 | 0.406 | 0.455 | 0.421
A549 | – | – | – | – | – | 1.29 | 1.25 | 1.23 | 1.17 | 1.08 | – | – | – | – | – | 0.132 | 0.14 | 0.143 | 0.0906
A-427 | 0.983 | 0.988 | 0.982 | 1.08 | 1.06 | 0.874 | 1.1 | 0.967 | 0.988 | 1.01 | 0.988 | 0.967 | 1.03 | 1.04 | 0.978 | 0.264 | 0.271 | 0.266 | 0.23
ABC-1 | 0.291 | 0.314 | 0.446 | 0.31 | 0.309 | – | – | – | – | – | – | – | – | – | – | 0.228 | 0.231 | 0.234 | 0.25
BEN | 0.61 | 1.06 | 0.868 | 0.837 | 0.749 | 0.36 | 0.0558 | 0.072 | 0.0753 | 0.0581 | 0.811 | 0.826 | 0.712 | 0.855 | 0.769 | 0.281 | 0.315 | 0.252 | 0.257
CAL-12T | 0.976 | 1.14 | 0.954 | 0.901 | 0.877 | 1.4 | 1.22 | 0.956 | 1.15 | 1.1 | 0.965 | 1.23 | 1.14 | 1.22 | 1.19 | 0.469 | 0.392 | 0.393 | 0.353
COR-L23 | 0.91 | 1.06 | 0.982 | 0.98 | 0.896 | 0.996 | 1.07 | 0.947 | 0.947 | 0.86 | 0.181 | 0.177 | 0.189 | 0.199 | 0.197 | 0.464 | 0.469 | 0.519 | 0.463
COR-L 105 | 0.867 | 0.902 | 0.751 | 0.777 | 0.691 | 0.743 | 0.755 | 0.782 | 0.794 | 0.748 | 0.738 | 1.03 | 1.11 | 1.16 | 1.07 | 0.355 | 0.321 | 0.331 | 0.297
Calu-6 | 0.981 | 0.972 | 1.02 | 1.08 | 1.05 | 0.716 | 0.934 | 0.851 | 0.91 | 0.832 | – | – | – | – | – | – | – | – | –
ChaGo-K-1 | 1.08 | 1.11 | – | 1.08 | 0.926 | 1.02 | 1.24 | – | 1.09 | 1.06 | 0.257 | 0.26 | 0.255 | 0.26 | 0.263 | 0.484 | 0.555 | 0.465 | 0.461
EBC-1 | 0.409 | 0.604 | 0.609 | 0.511 | 0.481 | 0.389 | 0.455 | 0.479 | 0.443 | 0.47 | – | – | – | – | – | – | – | – | –
EKVX | 1.04 | 1.05 | 1.04 | 1.14 | 0.842 | 0.985 | 0.995 | 0.917 | 0.891 | 0.854 | 0.471 | 0.402 | 0.351 | 0.427 | 0.35 | 0.22 | 0.217 | 0.214 | 0.22
EMC-BAC-2 | 1.02 | 1.05 | 0.958 | 1.02 | 1.04 | 1.09 | 1.17 | 1.14 | 1.15 | 1.07 | 0.406 | 0.457 | 0.407 | 0.467 | 0.417 | 0.559 | 0.583 | 0.552 | 0.537
EPLC-272H | – | 0.957 | 0.852 | 0.872 | 0.947 | – | 1.23 | 1.12 | 1.14 | 1.05 | 0.361 | 0.316 | 0.356 | 0.412 | 0.36 | 0.26 | 0.223 | 0.211 | 0.223
H3255 | 0.784 | 0.855 | 0.626 | 0.825 | 0.644 | 0.54 | 0.573 | 0.433 | 0.618 | 0.498 | 0.584 | 0.615 | 0.526 | 0.603 | 0.562 | 0.385 | 0.367 | 0.332 | 0.318
HARA | 1.14 | 1.13 | 0.937 | 1.12 | 1.1 | 0.996 | 1.17 | 1.1 | 1.11 | 1.15 | 0.216 | 0.247 | – | 0.329 | 0.284 | 0.502 | 0.387 | 0.48 | 0.299
HCC-15 | 1.05 | 1.04 | 0.964 | 1 | 0.875 | 0.674 | 0.707 | 0.635 | 0.621 | 0.588 | 0.24 | 0.236 | 0.217 | 0.217 | 0.201 | 0.37 | 0.284 | 0.231 | 0.185
HCC-44 | 0.85 | 0.93 | 0.948 | 0.829 | 0.904 | 0.987 | 0.943 | 0.891 | 0.979 | 0.975 | 0.667 | 0.673 | 0.63 | 0.649 | 0.656 | 0.179 | 0.187 | 0.209 | 0.184
